Calls of active or inactive are those of the source.

The nature of data set [1]: Metabolic stability in human liver microsome assessed as half life measured upto 60 mins by LC-MS/MS analysis. The conditions noted are these: liver microsomes. The data set is classed as ADME.
The nature of data set [2]: Metabolic stability in mouse liver microsome assessed as half life measured upto 60 mins by LC-MS/MS analysis. It is filed as ADME. Particulars: liver microsomes. For orientation: Liver microsomes are vesicles of endoplasmic reticulum, rich in cytochrome P450 enzymes.
For a further data set, the system named is Farage. As to the kind of experiment: Antiproliferative activity against human Farage cells assessed as inhibition of cell growth measured for 72 hrs by MTT assay. It is filed as functional, cell-based.
For another data set, the system named is KARPAS-422. As to the kind of experiment: Antiproliferative activity against human KARPAS-422 cells assessed as inhibition of cell growth measured for 72 hrs by MTT assay. The data set is classed as functional, cell-based. Particulars: KARPAS-422, 72 h.
The test system of the next data set is Maver1. As to the kind of experiment: Antiproliferative activity against human MAVER-1 cells assessed as inhibition of cell growth measured for 72 hrs by MTT assay. The data set is classed as functional, cell-based. Particulars: Maver1, 72 h.
In data set [3] the test system is AHH-1. As to the kind of experiment: Induction of cell cycle arrest in human AHH-1 cells assessed as accumulation of cells at G2/M phase at 100 nM incubated for 72 hrs by annexin V-FITC and PI staining based flow cytometry analysis. The data set is classed as functional.
The subject of data set [4] is AHH-1. As to the kind of experiment: Induction of apoptosis in human AHH-1 cells at 100 to 2500 nM measured after 72 hrs by annexin V-FITC and PI staining based flow cytometry analysis. The data set is classed as functional, cell-based. The conditions noted are these: dose 100-2500 nM. For orientation: In flow cytometry, cells or beads pass a laser one at a time.
The subject of data set [5] is AHH-1. As to the kind of experiment: Induction of cell cycle arrest in human AHH-1 cells assessed as accumulation of cells at S phase at 2500 nM incubated for 72 hrs by annexin V-FITC and PI staining based flow cytometry analysis. The data set is classed as functional.
Data set [6] has as its system TERT-RPE1. As to the kind of experiment: Induction of cell cycle arrest in human TERT-RPE1 cells assessed as accumulation of cells at G1 phase at 100 nM incubated for 72 hrs by annexin V-FITC and PI staining based flow cytometry analysis. The data set is classed as functional.
Data set [7] relates to AHH-1. As to the kind of experiment: Induction of cell cycle arrest in human AHH-1 cells assessed as accumulation of cells at G1 phase at 2500 nM incubated for 72 hrs by annexin V-FITC and PI staining based flow cytometry analysis. The data set is classed as functional.
Data set [8] concerns AHH-1. As to the kind of experiment: Induction of cell cycle arrest in human AHH-1 cells assessed as accumulation of cells at G2/M phase at 2500 nM incubated for 72 hrs by annexin V-FITC and PI staining based flow cytometry analysis. The data set is classed as functional.
Another data set concerns Z-138. As to the kind of experiment: Antiproliferative activity against human Z138 cells assessed as inhibition of cell growth measured for 72 hrs by MTT assay. The data set is classed as functional, cell-based. Particulars: Z-138, 72 h. Background: Tetrazolium dyes change colour on reduction, which living cells bring about.
Data set [9] deals with HeLa. As to the kind of experiment: Induction of cell cycle arrest in human HeLa cells assessed as accumulation of cells at G1 phase at 1000 nM incubated for 72 hrs by annexin V-FITC and PI staining based flow cytometry analysis. It is filed as functional.
The test system of data set [10] is HeLa. As to the kind of experiment: Induction of cell cycle arrest in human HeLa cells assessed as accumulation of cells at G1 phase at 100 nM incubated for 72 hrs by annexin V-FITC and PI staining based flow cytometry analysis. The data set is classed as functional.
Data set [11] relates to AHH-1. As to the kind of experiment: Induction of cell cycle arrest in human AHH-1 cells assessed as accumulation of cells at G1 phase at 1000 nM incubated for 72 hrs by annexin V-FITC and PI staining based flow cytometry analysis. It is filed as functional.
Data set [12] concerns TERT-RPE1. As to the kind of experiment: Induction of cell cycle arrest in human TERT-RPE1 cells assessed as accumulation of cells at S phase at 100 nM incubated for 72 hrs by annexin V-FITC and PI staining based flow cytometry analysis. It is filed as functional.
The test system of data set [13] is AHH-1. As to the kind of experiment: Induction of cell cycle arrest in human AHH-1 cells assessed as accumulation of cells at G2/M phase at 1000 nM incubated for 72 hrs by annexin V-FITC and PI staining based flow cytometry analysis. The data set is classed as functional.
Data set [14] deals with TERT-RPE1. As to the kind of experiment: Induction of cell cycle arrest in human TERT-RPE1 cells assessed as accumulation of cells at S phase at 2500 nM incubated for 72 hrs by annexin V-FITC and PI staining based flow cytometry analysis. The data set is classed as functional.
The test system of data set [15] is HeLa. As to the kind of experiment: Induction of cell cycle arrest in human HeLa cells assessed as accumulation of cells at G1 phase at 2500 nM incubated for 72 hrs by annexin V-FITC and PI staining based flow cytometry analysis. It is filed as functional.
The subject of data set [16] is TERT-RPE1. As to the kind of experiment: Induction of cell cycle arrest in human TERT-RPE1 cells assessed as accumulation of cells at G2/M phase at 2500 nM incubated for 72 hrs by annexin V-FITC and PI staining based flow cytometry analysis. It is filed as functional.
Data set [17] has as its system HeLa. As to the kind of experiment: Induction of cell cycle arrest in human HeLa cells assessed as accumulation of cells at G2/M phase at 2500 nM incubated for 72 hrs by annexin V-FITC and PI staining based flow cytometry analysis. It is filed as functional.
Data set [18] relates to HeLa. As to the kind of experiment: Induction of cell cycle arrest in human HeLa cells assessed as accumulation of cells at sub-G1 phase incubated for 72 hrs by annexin V-FITC and PI staining based flow cytometry analysis. It is filed as functional.
Data set [19] deals with TERT-RPE1. As to the kind of experiment: Induction of cell cycle arrest in human TERT-RPE1 cells assessed as accumulation of cells at S phase at 1000 nM incubated for 72 hrs by annexin V-FITC and PI staining based flow cytometry analysis. It is filed as functional.
Data set [20] deals with HeLa. As to the kind of experiment: Induction of cell cycle arrest in human HeLa cells assessed as accumulation of cells at S phase at 1000 nM incubated for 72 hrs by annexin V-FITC and PI staining based flow cytometry analysis. It is filed as functional.
For data set [21], the system named is HeLa. As to the kind of experiment: Induction of cell cycle arrest in human HeLa cells assessed as accumulation of cells at S phase at 100 nM incubated for 72 hrs by annexin V-FITC and PI staining based flow cytometry analysis. The data set is classed as functional.
The test system of data set [22] is HeLa. As to the kind of experiment: Induction of cell cycle arrest in human HeLa cells assessed as accumulation of cells at S phase at 2500 nM incubated for 72 hrs by annexin V-FITC and PI staining based flow cytometry analysis. It is filed as functional.
Data set [23] relates to TERT-RPE1. As to the kind of experiment: Induction of cell cycle arrest in human TERT-RPE1 cells assessed as accumulation of cells at G1 phase at 1000 nM incubated for 72 hrs by annexin V-FITC and PI staining based flow cytometry analysis. The data set is classed as functional.
In data set [24] the test system is TERT-RPE1. As to the kind of experiment: Induction of cell cycle arrest in human TERT-RPE1 cells assessed as accumulation of cells at G2/M phase at 100 nM incubated for 72 hrs by annexin V-FITC and PI staining based flow cytometry analysis. The data set is classed as functional.
The subject of data set [25] is HeLa. As to the kind of experiment: Induction of cell cycle arrest in human HeLa cells assessed as accumulation of cells at G2/M phase at 100 nM incubated for 72 hrs by annexin V-FITC and PI staining based flow cytometry analysis. It is filed as functional.
The test system of the next data set is U2932. As to the kind of experiment: Antiproliferative activity against human U2932 cells assessed as inhibition of cell growth measured for 72 hrs by MTT assay. The data set is classed as functional, cell-based. Particulars: U2932, 72 h.
In data set [26] the test system is AHH-1. As to the kind of experiment: Induction of cell cycle arrest in human AHH-1 cells assessed as accumulation of cells at G1 phase at 100 nM incubated for 72 hrs by annexin V-FITC and PI staining based flow cytometry analysis. The data set is classed as functional.
Data set [27] deals with HeLa. As to the kind of experiment: Induction of cell cycle arrest in human HeLa cells assessed as accumulation of cells at G2/M phase at 1000 nM incubated for 72 hrs by annexin V-FITC and PI staining based flow cytometry analysis. It is filed as functional.
Data set [28] concerns AHH-1. As to the kind of experiment: Induction of cell cycle arrest in human AHH-1 cells assessed as accumulation of cells at sub-G1 phase incubated for 72 hrs by annexin V-FITC and PI staining based flow cytometry analysis. The data set is classed as functional.
The test system of data set [29] is TERT-RPE1. As to the kind of experiment: Induction of cell cycle arrest in human TERT-RPE1 cells assessed as accumulation of cells at G1 phase at 2500 nM incubated for 72 hrs by annexin V-FITC and PI staining based flow cytometry analysis. The data set is classed as functional.
Another data set has as its system TMD8. As to the kind of experiment: Antiproliferative activity against human TMD8 cells assessed as inhibition of cell growth measured for 72 hrs by MTT assay. It is filed as functional, cell-based. The conditions noted are these: TMD8, 72 h.
In data set [30] the test system is AHH-1. As to the kind of experiment: Induction of cell cycle arrest in human AHH-1 cells assessed as accumulation of cells at S phase at 100 nM incubated for 72 hrs by annexin V-FITC and PI staining based flow cytometry analysis. The data set is classed as functional.
Data set [31] relates to AHH-1. As to the kind of experiment: Induction of cell cycle arrest in human AHH-1 cells assessed as accumulation of cells at S phase at 1000 nM incubated for 72 hrs by annexin V-FITC and PI staining based flow cytometry analysis. The data set is classed as functional.
Data set [32] concerns TERT-RPE1. As to the kind of experiment: Induction of cell cycle arrest in human TERT-RPE1 cells assessed as accumulation of cells at G2/M phase at 1000 nM incubated for 72 hrs by annexin V-FITC and PI staining based flow cytometry analysis. It is filed as functional.

`CCOc1ccc2ccc(=O)oc2c1` [ETHOXYCOUMARIN]: the half-life (commonly the time needed for the level to fall by half in the phase considered) was found to be 8.3 min in data set [1] and 3.3 min in [2].
As for `CC(C)NCC(O)COc1cccc2ccccc12` (stereo not given) [PROPRANOLOL], the half-life turned out to be 47 min in data set [1] and 11.8 min in data set [2].
In the case of `COc1ccc(/C=C\c2cc(OC)c(OC)c(OC)c2)cc1O` [COMBRETASTATIN A4], the IC50 (in general, the point on the concentration scale where inhibition reaches its midpoint) in the data set with Farage was 700 pM; in the data set on KARPAS-422, 580 pM; with Maver1 it was 4600 pM; in the data set on Z-138, 780 pM; with U2932 it was 890 pM; in the data set on TMD8 it was 660 pM. In addition, the Activity was determined as 74.5% with AHH-1 [3]; 10.3% with AHH-1 [5]; 23% in the data set with TERT-RPE1 [6]; 7% in the data set with AHH-1 [7]; 74.1% with AHH-1 [8]; 10.1% in the data set with HeLa [9]. Moreover, the Activity in the data set with HeLa [10] was 23.4%; in the data set on AHH-1 [11], 7.8%; with TERT-RPE1 [12], 9%; in the data set on AHH-1 [13] it was 78.8%; with TERT-RPE1 [14], 5.4%; in the data set with HeLa [15] it was 8.8%. Besides, the Activity in the data set on TERT-RPE1 [16] is given as 73%; in the data set on HeLa [17], 75.2%; in the data set on TERT-RPE1 [19], 8.4%; in the data set with HeLa [20] it was 16.8%; in the data set on HeLa [21] it was 15.5%; in the data set with HeLa [22] it was 9.2%. Moreover, the Activity was 17.1% in the data set on TERT-RPE1 [23]; 68% with TERT-RPE1 [24]; 61.1% with HeLa [25]; 8.6% in the data set with AHH-1 [26]; 73.1% with HeLa [27]; 19% in the data set on TERT-RPE1 [29]. Also, the Activity in the data set on AHH-1 [30] stood at 17%; in the data set with AHH-1 [31], 13.4%; in the data set on TERT-RPE1 [32], 74.6%. Besides, the result with AHH-1 [4], with HeLa [18] and in the data set on AHH-1 [28] was Active.

These data come from ChEMBL document CHEMBL5352470, “RS6077 induces mitotic arrest and selectively activates cell death in human cancer cell lines and in a lymphoma tumor in vivo” (Eur J Med Chem, 2023).
